Results: patent US5589506A, “Stilbene derivative and stilbene analog derivative, and use thereof” (Morinaga Milk Industry Co., Ltd., priority 1993, dated 1996)
“Also recorded” adds a separate entry of the source. Like-named read-outs stand apart in the source and are kept apart here.

How the values were obtained:
[1] = Deacylation by esterases present in the enzyme solution prepared from rat platelets; format: in vitro ADME; settings: platelet enzyme solution, 37° C., read-out: conversion (%) from Formula 34b or Formula 35b to Formula 32b; for metabolised at 0.5 h, 10 µM: Reaction time 30 min.; for metabolised at 1 h, 10 µM: Reaction time 60 min.
Experimental: The test was performed to examine whether or not deacylated compounds would be formed due to esterases present in the enzyme solution when the compounds in the third embodiment according to the present invention were treated with the same enzyme solution as in Test Example 4.
The enzyme solution was prepared according to the same procedure as described in Test Example 4.
(§1) One ml of the above mentioned enzyme solution was diluted with 11 ml of a resuspension buffer. To an aliquot (300 μl) of this enzyme solution was added 3 μl of a 1.0×10^-3 M test compound solution in dimethyl sulfoxide. The mixture was incubated at 37° C. for an indicated time, then the reaction was ceased by the addition of 1 ml of acetonitrile. Twenty μl of the above mixture was subjected to reverse phase high-performance liquid chromatography equipped with a C-18 column to quantify the amount of deacylated products. As a control, a test using 300 μl of the resuspension buffer solution mentioned above instead of the enzyme solution was also performed.
Conditions of reverse phase high-performance liquid chromatography:
Column: Superspher RP-18(e) (purchased from Merck), 4.0 mm in diameter, 125 mm in length
Flow velocity: 1.0 ml/minute
Eluent: Acetonitrile containing 50 mM NaClO4 and 50 mM orthophosphate-water (55: 45)
Column temperature: 30° C.
Calibration: Absorbance of 280 nm

[2] = Deacylation control test in resuspension buffer instead of enzyme solution; format: in vitro ADME; settings: resuspension buffer instead of the enzyme solution
Experimental: as §1

12-lipoxygenase [3] = target: T1, 12-lipoxygenase (Rattus norvegicus, UniProt F1LQ70); assay: 12-lipoxygenase inhibition assay (rat platelet enzyme solution); format: biochemical, Sprague Dawley male rat
T1 construct: The pelleted platelets were rinsed twice with a washing buffer; from tissue; host or cells: platelets of Sprague Dawley male rat (sonicate, 100,000 x g supernatant)
T1 sequence (F1LQ70 1-663): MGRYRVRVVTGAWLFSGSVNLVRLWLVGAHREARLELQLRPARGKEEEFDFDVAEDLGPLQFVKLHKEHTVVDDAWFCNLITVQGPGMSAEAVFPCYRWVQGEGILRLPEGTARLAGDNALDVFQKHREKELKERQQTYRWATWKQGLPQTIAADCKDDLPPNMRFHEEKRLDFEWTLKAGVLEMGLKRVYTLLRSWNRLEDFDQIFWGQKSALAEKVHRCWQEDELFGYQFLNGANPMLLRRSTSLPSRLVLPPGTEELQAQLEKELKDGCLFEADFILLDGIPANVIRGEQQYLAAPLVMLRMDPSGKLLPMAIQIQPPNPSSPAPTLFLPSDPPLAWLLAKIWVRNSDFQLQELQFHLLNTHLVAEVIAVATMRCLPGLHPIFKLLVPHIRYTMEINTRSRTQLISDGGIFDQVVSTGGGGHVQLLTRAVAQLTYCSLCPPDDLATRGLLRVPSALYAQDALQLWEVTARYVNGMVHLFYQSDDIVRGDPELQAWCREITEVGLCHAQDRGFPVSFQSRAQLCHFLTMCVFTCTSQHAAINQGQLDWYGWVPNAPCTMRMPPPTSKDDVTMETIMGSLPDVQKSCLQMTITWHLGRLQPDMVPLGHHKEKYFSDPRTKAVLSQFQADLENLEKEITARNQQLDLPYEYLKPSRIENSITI
Experimental: The test was performed to examine inhibitory effect of various compounds on the 12-lipoxyganase activity.
1) Preparation of Enzyme Solution
A Sprague Dawley male rat was anesthetized with ether and bled from abdominal aorta using a syringe filled with about one-tenth volume of 3.8% sodium citrate. Blood was centrifuged at 180×g for 15 minutes at room temperature to pellet sanguineous platelet blood plasma. The resultant supernatant was again centrifuged at 1800×g for 10 minutes at 4° C. The pelleted platelets were rinsed twice with a washing buffer (50 mM Tris-hydrochloric acid buffer containing 154 mM sodium chloride and 2 mM EDTA, pH: 7.4). The platelets were then suspended in one-twentieth volume of a resuspension buffer (50 mM Tris-hydrochloric acid buffer containing 154 mM sodium chloride and 5.5 mM glucose, pH: 7.4). The platelets were then sonicated at 4° C. and centrifuged at 100,000×g for 30 minutes to obtain a supernatant as a 12-lipoxgenaseenzyme solution.
2) Procedure for 12-lipoxgenase inhibition assay
The enzyme solution described above was diluted with the resuspension buffer above mentioned to prepare an assay solution so as to include about 2 mU/ml of 12-lipoxygenase. […] The resultant mixture was incubated at 37° C. for 5 minutes. Subsequently, 3 μl of a 2.5 mM arachidonic acid solution in ethanol was added to incubate with for another 5 minutes at 37° C., then the reaction was ceased by the addition of 600 μl of methanol. After being centrifuged at 10,000×g for 5 minutes, 12-hydroxyeicosatetraenoic acid recovered in the supernatant was separated with a reverse phase high-performance liquid chromatography equipped with a […] the activity of 12 lipoxygenase.
The enzyme solution was prepared according to the same manner as in Test Example 1.
It was prepared according to the same procedure as in Test Example 1.
Measurement was performed according to the same procedure as in Test Example 1.
The measurement was performed according to the same procedure as in Test Example 1.

5-lipoxygenase = target: T2, 5-lipoxygenase (Rattus norvegicus, UniProt P12527); assay: 5-lipoxygenase inhibition assay (rat basophilic leukemia cell RBL-1 enzyme solution); format: biochemical
T2 construct: Cultured cells were collected and washed twice; host or cells: RBL-1 rat basophilic leukemia cells (sonicate, 10,000 x g supernatant)
T2 sequence (P12527 1-673): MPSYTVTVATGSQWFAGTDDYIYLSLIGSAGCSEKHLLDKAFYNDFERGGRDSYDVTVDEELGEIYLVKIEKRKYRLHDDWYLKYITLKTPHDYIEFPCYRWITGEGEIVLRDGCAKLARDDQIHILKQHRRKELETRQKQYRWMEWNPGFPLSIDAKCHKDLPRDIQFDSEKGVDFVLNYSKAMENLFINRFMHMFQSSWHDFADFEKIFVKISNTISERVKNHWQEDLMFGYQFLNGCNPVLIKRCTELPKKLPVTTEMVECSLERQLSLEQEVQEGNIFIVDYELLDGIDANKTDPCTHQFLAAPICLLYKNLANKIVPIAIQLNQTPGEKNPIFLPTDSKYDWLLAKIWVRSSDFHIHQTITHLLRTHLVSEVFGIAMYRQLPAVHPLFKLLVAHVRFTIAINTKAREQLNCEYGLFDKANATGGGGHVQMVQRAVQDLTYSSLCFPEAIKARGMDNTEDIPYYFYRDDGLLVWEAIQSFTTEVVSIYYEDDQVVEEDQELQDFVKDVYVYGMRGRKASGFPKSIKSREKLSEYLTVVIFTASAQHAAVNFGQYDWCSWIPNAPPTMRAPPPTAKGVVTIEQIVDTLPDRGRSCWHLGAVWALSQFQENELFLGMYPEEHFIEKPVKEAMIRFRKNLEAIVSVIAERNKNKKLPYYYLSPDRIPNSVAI
Experimental: The test was carried out to examine the selectivity toward 12-lipoxgenase of the compounds of the first embodiment in the present invention.
i) Preparation of 5-lipoxgenase enzyme solution
Rat basophilic leukemia cells (RBL-1, ATCC CRL1378) were cultured in Dulbecco modified Eagle's medium containing 10% new-born bovine serum.
Cultured cells were collected and washed twice with a 50 mM Tris-buffered saline (containing 154 mM sodium chloride, pH: 7.4, hereinafter described as TBS). The cell suspension (4×10^7 cells/ml) was then sonicated and centrifuged at 10,000×g for 10 minutes.
The resultant supernatant was used to prepare an assay solution.
i) Procedure for 5-lipoxgenase inhibition assay
To an aliquot (15 μl) of the enzyme solution (40 mU/ml equivalent) was added 185 μl of TBS, 50 μl of a 2 mM adenosine triphosphate in TBS, 50 μl of a 12 mM calcium chloride in TBS, 1 μl of a 3 mM indomethacin in ethanol solution, 1 μl of an aqueous 300 mM reduced glutathione solution, and 3 μl of varied concentrated test compounds solution in ethanol. The resultant mixture was incubated at 37° C. for 5 minutes. Subsequently, 3 μl of a 2.5 mM arachidonic acid solution in ethanol was added to incubate the mixture for 2 minutes at 37° C. The reaction was ceased by the addition of 600 μl of methanol After being centrifuged at 10,000×g for 5 minutes, 5-hydroxyeicosatetraenoic acid recovered in the supernatant was separated with a reverse phase high-performance liquid chromatography equipped with a C-18 column and measured the absorption of diene at 234 nm to quantify the activity of the enzyme. […]
The enzyme activities of the compounds of the present invention prepared according to the same procedure as in Examples 54-58 to be described later and baicalein as sample substances at varied concentrations were measured according to the above-mentioned method, and mole concentrations showing 50% 12-lipoxgenase and 5-lipoxgenase inhibition ratios (hereinafter may be described as IC50 values) were obtained from the measured values of the sample substances.

12-lipoxygenase [4] = settings: background; cited from earlier work
[5] = Table 3, read-out: IC50 values of 12-lipoxygenase (mole)
[6] = Table 3, read-out: IC50 values of 5-lipoxygenase (mole)
[7] = Table 12, deacylated compounds, read-out: 12-Lipoxygenase inhibitory effect of deacylated compounds (IC50 values)
[8] = Table 23, read-out: 12-Lipoxygenase inhibitory effect IC50
[9] = Table 23, read-out: 5-Lipoxygenase inhibitory effect IC50

Structure (SMILES) | IC50 (12-lipoxygenase [3]; [5]) [nM] | IC50 (5-lipoxygenase; [6]) [nM] | other results
CCC(=O)Oc1ccc(C=C(C#N)c2ccc(Cl)cc2)cc1OC(=O)CC [Formula 35b] | – | – | metabolised at 0.5 h, 10 µM [1]: 56.5%; metabolised at 1 h, 10 µM [1]: 64.6%; formation of deacylated compound (Formula 32b) [2]: no deacylated compound (Formula 32b) was formed
Cc1ccc(C(C#N)=Cc2ccc(O)c(O)c2)cc1 [Ex. 6] | 4.5 | 48 | –
N#CC(=Cc1ccc(O)c(O)c1)c1ccc(I)cc1 [Ex. 5, α-cyano-4-iodo-3',4'-dihydroxystilbene] | 5.4 | 20 | IC50 (12-lipoxygenase [3]; [7]): 5.4 nM
CC(=O)Oc1ccc(C=C(C#N)c2ccc(Cl)cc2)cc1OC(C)=O [Formula 34b] | – | – | metabolised at 0.5 h, 10 µM [1]: 70.9%; metabolised at 1 h, 10 µM [1]: 82.8%; formation of deacylated compound (Formula 32b) [2]: no deacylated compound (Formula 32b) was formed
N#CC(=Cc1ccc2ccccc2c1)c1ccc(O)c(O)c1 [Formula 24c] | – | – | IC50 (12-lipoxygenase [3]; [8]): 5.6 nM; IC50 (5-lipoxygenase; [9]): 28 nM
N#CC(=Cc1ccc(F)cc1)c1ccc(O)c(O)c1 [Ex. 21, α-cyano-4'-fluoro-3,4-dihydroxystilbene] | 4.8 | 74 | IC50 (12-lipoxygenase [3]; [7]): 4.8 nM
CCc1ccc(C=C(C#N)c2ccc(O)c(O)c2)cc1 [Ex. 26, α-cyano-4'-ethyl-3,4-dihydroxystilbene] | 4.2 | 32 | –
O=c1cc(-c2ccccc2)oc2cc(O)c(O)c(O)c12 [Baicalein, baicalein] | – | – | 12-lipoxygenase inhibitory effect (literature, in words) (12-lipoxygenase [4]): having an inhibitory effect to 12-lipoxygenase; also recorded: relatively high 12-lipoxgenaseinhibitory activities and a relatively high selectivity
N#CC(=Cc1cc(O)c(O)c(O)c1)c1ccc(Cl)cc1 [Ex. 15, α-cyano-4-chloro-3',4',5'-trihydroxystilbene] | 14 | 56 | –
Cc1ccc(C=C(C#N)c2ccc(O)c(O)c2)cc1 [Ex. 24, α-cyano-4'-methyl-3,4-dihydroxystilbene] | 2.5 | 52 | IC50 (12-lipoxygenase [3]; [7]): 4.5 nM
CCc1ccc(C(C#N)=Cc2ccc(O)c(O)c2)cc1 [Ex. 11] | 5.8 | 46 | –
N#CC(=Cc1cc2ccccc2o1)c1ccc(O)c(O)c1 [Formula 26c] | – | – | IC50 (12-lipoxygenase [3]; [8]): 3.2 nM; IC50 (5-lipoxygenase; [9]): 34 nM
